In patent US6521655B1, “Substituted imidazoles useful in the treatment of inflammatory diseases” (Ortho-McNeil Pharmaceutical, Inc., priority 1997, dated 2003):

Key:
TNF-α [1] = assay: in vitro whole cell assay, LPS-stimulated PBMC, TNF-α ELISA; assay type: cell-based; details: LPS-stimulated human PBMC
Method: Aside from the enzyme assay, many of the compounds of the invention were tested in an in vitro whole cell assay using peripheral blood mononuclear cells (“PBMC”) which were obtained from human blood as follows. Freshly obtained venous blood was anticoagulated with heparin, diluted with an equal volume of phosphate buffered saline (“PBS”) and placed in a sterile tube or other container. Aliquots (30 mL) of this mixture were transferred to centrifuge tubes which were underlaid with Ficoll-Hypaque (15 mL). The prepared tubes were centrifuged at 400×g without braking for 30 min at room temperature. Approximately ½ to ⅔ of the platelet layer above the mononuclear cell band was removed with a pipette. The majority of the mononuclear cell layer was carefully removed using a pipette and these PBMCs were diluted with PBS and spun at 600×g for 15 min. […] A small volume of the suspension was removed for counting on a hemocytometer and the remaining preparation was centrifuged at 200×g for 15 min at room temperature. The recovered pelleted PMBC were resuspended in RPMI/1% FCS to a concentration of 1.67×10^6/mL. To run the assay, the PBMC suspension (180 μL) was transferred to duplicate wells of a 96-well flat-bottom microtiter plate and incubated for 1 h at 37° C. […] A solution (10 μL) of LPS in RPMI/1% FCS (200 ng/mL) was added and the wells were incubated overnight at 37° C. The supernate ([…]) was removed from each well and diluted with RPMI/1% FCS (400 μL). The samples were analyzed for TNF-α using a commercial ELISA kit (Genzyme).

purified recombinant p38 = molecular target: T1, purified recombinant p38 (Homo sapiens, UniProt Q16539); assay: p38 in vitro enzyme assay (33P-ATP, myelin basic protein substrate); assay type: biochemical; details: for IC50: read-out: p-38 IC50
T1 construct: 6xHis; made in house; host or cells: E. coli
T1 sequence (Q16539 whole entry): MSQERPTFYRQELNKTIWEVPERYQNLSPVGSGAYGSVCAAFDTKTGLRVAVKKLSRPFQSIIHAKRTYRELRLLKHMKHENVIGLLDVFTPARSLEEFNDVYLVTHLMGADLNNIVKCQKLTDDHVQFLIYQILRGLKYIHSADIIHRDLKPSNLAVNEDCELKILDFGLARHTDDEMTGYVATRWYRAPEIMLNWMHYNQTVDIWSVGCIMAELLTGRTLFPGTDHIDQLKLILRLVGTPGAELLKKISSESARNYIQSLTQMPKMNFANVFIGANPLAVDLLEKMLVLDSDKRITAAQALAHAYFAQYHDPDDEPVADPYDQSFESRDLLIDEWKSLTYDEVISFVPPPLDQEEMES
Method: As discussed previously, agents which inhibit the activity of the enzyme p38, inhibit the production of the inflammatory cytokines TNF-α, and IL-1β. Compounds of the invention were measured for their ability to inhibit the activity of p38 by the following in vitro assay.
A solution (38 μL) of purified recombinant p38 (where the amount of enzyme was determined empirically considering the linear range of the assay and the acceptable signal to noise ratio; 6×His-p38 expressed in E.coli), myelin basic protein substrate (also determined empirically), a buffer of pH 7.5 (Hepes:25 mM, MgCl2:10 mM, MnCl2:10 mM) were added to 92 wells of a 96-well round bottom polypropylene plate. The remaining wells were used for control (“CTRL”) and background (“BKG”). The CTRL was prepared with the enzyme, substrate buffer and 2% DMSO, and the BKG was prepared with substrate buffer and 2% DMSO. A solution (12 μL) of the test compound in DMSO (compounds were diluted to 125 μM in 10% DMSO/H2O and assayed at 25 μM where the final DMSO concentration was 2%) was added to the testing wells. The ATP/^33P-ATP solution (10 μL: containing 50 μM unlabeled ATP and 1 μCi ^33P-ATP) was added to all wells and the completed plates were mixed and incubated at 30° C. for 30 min. Ice-cold 50% TCA/10 mM sodium phosphate (60 μL) were added to each well and the plates were kept on ice for 15 min. The contents of each well were transferred to the wells of a 96-well filterplate (Millipore, MultiScreen-DP) and the filterplate was placed on a vacuum manifold, fitted with a waste collection tray. The wells were washed five times with 10% TCA/10 mM sodium phosphate (200 μL) under vacuum. MicroScint-20 scintillant was added, the plates were sealed using Topseal-S sheets and counted in a Packard TopCount scintillation counter using a ^33P liquid program with color quench correction, where the output is in color quench-corrected cpm. The % inhibition of the test compounds was calculated by the following formula: % inhibition=[1−(sample -BKG)/(CTRL-BKG)]×100.
Although compounds were initially tested at […], if warranted the compounds were tested at 4-fold increments above and below that concentration. In addition, IC50s were calculated for some compounds using the Deltagraph 4-parameter curve fitting program.

TNF-α [2] = assay: in vivo LPS induced TNF-α production, mice; design: species or system Mice (BALB/cJ females); details: 25 mg/kg, oral, LPS 1 mg/kg i.p.
Method: (§1) Thirty minutes after dosing, the animals were injected intraperitoneally with LPS at 1 mg/kg and returned to their cages for 1 h. Animals were anesthetized by CO2, exsanguinated by cardiac puncture and whole blood collected (0.1-0.7 mL). The blood was allowed to clot and serum was transferred to a centrifuge tube. This sample was centrifuged, serum was collected, aliquoted and frozen at −80° C. Samples were tested by commercial ELISAs for TNF-α (Endogen for mouse TNF-α and Biosource for rat TNF-α).

IL-1β = assay: in vitro IL-1β assay, plastic-adherent cells from PBMC, LPS stimulation, ELISA; assay type: cell-based; details: Homo sapiens, read-out: inhibition of production of IL-1β, IC50
Method: The IL-1β activity of select compounds of the invention was determined by the following in vitro assay. Plastic-adherent cells were prepared from PBMC. Briefly, PBMCs were added to the wells of a 96-well plate as above, incubated for 1 h at 37° C., and the adherent cells prepared by gently resuspending the non-adherent cells with a pipettor, removing and discarding them and gently washing the wells 3 times with 200 μL culture medium. Additional culture medium (180 μL) was added to the wells after the final wash. Compound addition, LPS stimulation, incubation and supernate harvest were as for TNF-α. Supernates were assayed for interleukin-1β using a commercial ELISA (Genzyme).

TNF-α [3] = assay: in vivo LPS induced TNF-α production, rats; design: species or system rats (Lewis males); details: 25 mg/kg, oral, LPS 1 mg/kg i.p.
Method: as §1

`O=C(Nc1ccccc1)OCCC#Cc1nc(-c2ccc(F)cc2)c(-c2ccncc2)n1CCCc1ccccc1` [compound 15] showed an IC50 (TNF-α [1]) of 38 nM.

With `Fc1ccc(-c2nc(C=C(Br)Br)[nH]c2-c2ccncc2)cc1` [compound 44] the IC50 (TNF-α [1]) was 200 nM and the p-38 % inhibition (purified recombinant p38; @ 20 μm) was 93% @ 20 μm.

With `CCCC#Cc1nc(-c2ccncc2)c(-c2ccc(F)cc2)n1COCC[Si](C)(C)C` [compound 26] the IC50 (TNF-α [1]) was > 2000 nM and the “% Inhibition TNF-α Mice” value (TNF-α [2]) was 0%.

In the case of `OCCCCC#Cc1nc(-c2ccc(F)cc2)c(-c2ccncc2)n1CCCc1ccccc1` [compound 43], the IC50 (TNF-α [1]) is reported as 5.2 nM, the p-38 % inhibition (purified recombinant p38; @ 20 μm) is reported as 98% @ 20 μm and the “% Inhibition TNF-α Mice” value (TNF-α [2]) is reported as 53%.

Compound `O=[N+]([O-])c1ccc(CON=Cc2nc(-c3ccc(F)cc3)c(-c3ccncc3)[nH]2)cc1` [compound 33] has an IC50 (TNF-α [1]) of 150 nM.

Compound `O=C(OCCC#Cc1nc(-c2ccc(F)cc2)c(-c2ccncc2)n1CCCc1ccccc1)c1ccccc1` [compound 50] has an IC50 (TNF-α [1]) of 2 nM.

With `Fc1ccc(-c2[nH]c(/C=C/Cl)nc2-c2ccncc2)cc1` [compound 8] the IC50 (purified recombinant p38) was 1500 nM.

For `C=CC#Cc1nc(-c2ccc(F)cc2)c(-c2ccncc2)n1CCCc1ccccc1` [compound 51], the IC50 (TNF-α [1]) was 5.5 nM.

Compound `Fc1ccc(-c2nc(C#CBr)[nH]c2-c2ccncc2)cc1` [compound 31] has an IC50 (TNF-α [1]) of 250 nM.

For `OCCCC#Cc1nc(-c2ccc(F)cc2)c(-c2ccncc2)n1CCCc1ccccc1` [compound 35], the IC50 (TNF-α [1]) was 8 nM, the p-38 % inhibition (purified recombinant p38; @ 20 μm) was 99% @ 20 μm and the “% Inhibition TNF-α Mice” value (TNF-α [2]) was 68%.

Work on `Fc1ccc(-c2nc(C#CCCCCl)n(CCCc3ccccc3)c2-c2ccncc2)cc1` [compound 14] yielded an IC50 (TNF-α [1]) of 4 nM.

`C[Si](C)(C)CCOCn1c(C#CCCO)nc(-c2ccncc2)c1-c1ccc(F)cc1` [compound 20] was tested, and the IC50 (TNF-α [1]) was > 10000 nM.

With `OCCCC#Cc1nc(-c2ccc(F)cc2)c(-c2ccncc2)[nH]1` [compound 19] the IC50 (TNF-α [1]) was 85 nM and the “% Inhibition TNF-α Mice” value (TNF-α [2]) was 29%.

`O=C1c2ccccc2C(=O)N1CCCC#Cc1nc(-c2ccncc2)c(-c2ccc(F)cc2)[nH]1` [compound 29] showed an IC50 (TNF-α [1]) of 200 nM.

Work on `C[Si](C)(C)CCOCn1c(C=C(Br)Br)nc(-c2ccc(F)cc2)c1-c1ccncc1` [compound 18] yielded an IC50 (TNF-α [1]) of 1500 nM.

Work on `N#CC=Cc1nc(-c2ccc(F)cc2)c(-c2ccncc2)[nH]1` [compound 46] yielded an IC50 (TNF-α [1]) of 250 nM.

With `CCCC#Cc1nc(-c2ccc(F)cc2)c(-c2ccncc2)n1CCCc1ccccc1` [compound 34] the IC50 (TNF-α [1]) was 10 nM and the “% Inhibition TNF-α Mice” value (TNF-α [2]) was 53%.

For `CCCC#Cc1nc(-c2ccncc2)c(-c2ccc(F)cc2)[nH]1` [compound 28], the IC50 (TNF-α [1]) was 80 nM and the “% Inhibition TNF-α Mice” value (TNF-α [2]) was 88%.

`Fc1ccc(-c2nc(C=NOCc3ccccc3)[nH]c2-c2ccncc2)cc1` [compound 32] showed an IC50 (TNF-α [1]) of 80 nM.

`COCCC#Cc1nc(-c2ccc(F)cc2)c(-c2ccncc2)n1CCCc1ccccc1` [compound 49] showed an IC50 (TNF-α [1]) of 3 nM.

With `N#CCCCC#Cc1nc(-c2ccc(F)cc2)c(-c2ccncc2)n1CCCc1ccccc1` [compound 36] the IC50 (TNF-α [1]) was 9 nM, the IC50 (purified recombinant p38) was 1500 nM and the “% Inhibition TNF-α Mice” value (TNF-α [2]) was 69.3%. For the same compound, the IC50 (IL-1β) was 13 nM.

`O=C1c2ccccc2C(=O)N1CCCn1c(C#CCCO)nc(-c2ccc(F)cc2)c1-c1ccncc1` [compound 37] was tested, and the IC50 (TNF-α [1]) was 160 nM.

For `Fc1ccc(-c2nc(C#CCCCc3ccccc3)n(CCCc3ccccc3)c2-c2ccncc2)cc1` [compound 38], the IC50 (TNF-α [1]) was 40 nM.

Work on `C[Si](C)(C)CCOCn1c(C#CCCCN2C(=O)CCC2=O)nc(-c2ccc(F)cc2)c1-c1ccncc1` [compound 45] yielded an IC50 (TNF-α [1]) of 650 nM.

For `OCCCCC#Cc1nc(-c2ccc(F)cc2)c(-c2ccncc2)[nH]1` [compound 24], the IC50 (TNF-α [1]) was 100 nM and the “% Inhibition TNF-α Mice” value (TNF-α [2]) was 73%.

Compound `Fc1ccc(-c2nc(C#CCCCl)n(CCCc3ccccc3)c2-c2ccncc2)cc1` [compound 16] has an IC50 (TNF-α [1]) of 6 nM.

`CN(C)CCC#Cc1nc(-c2ccc(F)cc2)c(-c2ccncc2)n1CCCc1ccccc1` [compound 17] was tested, and the IC50 (TNF-α [1]) was 3 nM.

Compound `CCCCS(=O)(=O)CCCC#Cc1nc(-c2ccc(F)cc2)c(-c2ccncc2)n1CCCc1ccccc1` [compound 40] has an IC50 (TNF-α [1]) of 6.5 nM.

In the case of `OCCC#Cc1nc(-c2ccc(F)cc2)c(-c2ccncc2)n1CCCc1ccccc1` [Cpd. 4], the “% Inhibition TNF-α Rats” value (TNF-α [3]) is reported as 91%, the IC50 (TNF-α [1]) is reported as 3 nM and the IC50 (purified recombinant p38) is reported as 650 nM. The “% Inhibition TNF-α Mice” value (TNF-α [2]) was 49.6% and the IC50 (IL-1β) was 7 nM.

In the case of `C[Si](C)(C)CCOCn1c(C=C(Br)Br)nc(-c2ccncc2)c1-c1ccc(F)cc1` [compound 10], the p-38 % inhibition (purified recombinant p38; @ 5 μm) is reported as 16% @ 5 μm.

Compound `CCCCSCCCC#Cc1nc(-c2ccc(F)cc2)c(-c2ccncc2)n1CCCc1ccccc1` [compound 39] has an IC50 (TNF-α [1]) of 200 nM.

`CC(=O)OCCC#Cc1nc(-c2ccc(F)cc2)c(-c2ccncc2)n1CCCc1ccccc1` [compound 52] was tested, and the IC50 (TNF-α [1]) was 2.6 nM.

Compound `C#Cc1nc(-c2ccc(F)cc2)c(-c2ccncc2)[nH]1` [compound 30] has an IC50 (TNF-α [1]) of 150 nM.

`OCC#Cc1nc(-c2ccc(F)cc2)c(-c2ccncc2)n1CCCc1ccccc1` [compound 47] gave an IC50 (TNF-α [1]) of 7.2 nM.

`O=C1c2ccccc2C(=O)N1CCCC#Cc1nc(-c2ccc(F)cc2)c(-c2ccncc2)[nH]1` [compound 22] showed an IC50 (TNF-α [1]) of 700 nM.

`O/N=C/c1nc(-c2ccncc2)c(-c2ccc(F)cc2)[nH]1` [compound 13] gave an IC50 (TNF-α [1]) of 45 nM.

For `OCCC#Cc1nc(-c2ccc(F)cc2)c(-c2ccncc2)[nH]1` [compound 21], the IC50 (TNF-α [1]) was 80 nM.
